Earlier results on one compound are cited in patent US10111869B2, “Reduction of opioid blood fluctuations” (priority 2009, dated 2018).

The conditions of the data set: in vivo.

For the compound `COc1ccc2c3c1O[C@H]1C(=O)CC[C@@]4(O)[C@@H](C2)N(C)CC[C@]314` [Oxycodone], the “analgesic potency relative to morphine” value was “about twice”.
